Molecules are shown by their SMILES. Numbered stars: 1 amine (or outer) side, 2 acyl side, 3 side chain; on linkers, the order of the positions; unused ones are H or OH. Bridge positions count the residues as written; N and C are the ends. Square brackets hold non-standard residues; d marks the D form. Peptide text beside a SMILES is read from it. * marks the point of attachment. ξ: configuration not given here. X2 = CC(C)C[C@H](N[*:1])C(=O)C[C@H](C(=O)[*:2])C(C)C; Phe(4-COOH) = N[C@@H](Cc1ccc(C(=O)O)cc1)C(=O)O; Bip = N[C@@H](Cc1ccc(-c2ccccc2)cc1)C(=O)O; NH(CH2)14COOH = O=C(O)CCCCCCCCCCCCCCN*; Phe(3-Me) = Cc1cccc(C[C@H](N)C(=O)O)c1; Phe(4-F) = N[C@@H](Cc1ccc(F)cc1)C(=O)O; γGlu = O=C(O)[C@H](CCC(=O)[*:2])N[*:1]; NH(CH2)12COOH = O=C(O)CCCCCCCCCCCCN*; Val(3-OH) = CC(C)(O)[C@H](N)C(=O)O; X6 = O=C(Cc1ccc(CN[*:1])cc1)[*:2]; hArg = N=C(N)NCCCC[C@H](N)C(=O)O; 4Pal = N[C@@H](Cc1ccncc1)C(=O)O; Cha = N[C@@H](CC1CCCCC1)C(=O)O; Thr(3ξ) = CC(O)[C@H](N)C(=O)O; dDab = NCC[C@@H](N)C(=O)O; Carboxymethyl = O=C(O)C*; Orn = NCCC[C@H](N)C(=O)O; Aun = NCCCCCCCCCCC(=O)O; Dab = NCC[C@H](N)C(=O)O; Nva = CCC[C@H](N)C(=O)O; Abu = CC[C@H](N)C(=O)O; Dap = NC[C@H](N)C(=O)O; AEEA = NCCOCCOCC(=O)O

As usually defined, the IC50 is the point on the concentration scale where inhibition reaches its midpoint.

T1 sequence (Q15116 25-288): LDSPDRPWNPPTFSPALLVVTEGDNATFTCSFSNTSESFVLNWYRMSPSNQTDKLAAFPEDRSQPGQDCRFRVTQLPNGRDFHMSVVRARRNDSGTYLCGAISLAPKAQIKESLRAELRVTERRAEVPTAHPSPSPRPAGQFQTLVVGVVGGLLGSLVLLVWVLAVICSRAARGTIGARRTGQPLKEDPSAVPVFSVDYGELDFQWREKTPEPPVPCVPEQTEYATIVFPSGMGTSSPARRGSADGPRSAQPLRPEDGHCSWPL

This assay addresses T1, PD-1/PD-L1 interaction (PE-labeled human PD-L1-Ig binding to Jurkat cell line over-expressing human PD-1) (Homo sapiens, UniProt Q15116).
T1 construct: expressed in transfected cells; host or cells: Jurkat
Put plainly: Jurkat-PD-1 Cell Binding High-Content Screening Assay (CBA). Particulars: Jurkat cell line over-expressing human PD-1; PE-labeled PD-L1-Ig 20 nM final; read-out: Jurkat hPD1-PDL1 IC50. In kind it is cell-based. The method, boiled down:
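Jurkat cells stably over-expressing human PD-1 were seeded in DMEM with 10% fetal calf serum and pre-incubated with compound for 2 h at 37° C. PE-labeled human PD-L1-Ig was then added at 20 nM final for 1 hour, after which cells were fixed with paraformaldehyde, Hoechst-stained and imaged by high-content microscopy.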
Regarding `Cc1cccc(C[C@@H]2NC(=O)[C@H](CC(=O)O)NC(=O)[C@H](Cc3ccc(OCC(=O)O)cc3)NC(=O)[C@H](Cc3ccc(F)cc3)NC(=O)CSC[C@@H](C(=O)N[C@@H](CCN)C(=O)NCCOCCOCC(=O)NCCOCCOCC(=O)NCCCCCCCCCCCCC(=O)O)NC(=O)[C@H](CO)NC(=O)[C@H](C(C)(C)O)NC(=O)[C@H](CC3CCCCC3)NC(=O)[C@H](Cc3cnc[nH]3)NC(=O)[C@@H](CC(C)C)NC(=O)[C@H](CCCN)NC(=O)[C@H](Cc3ccc(OCC(=O)O)cc3)NC(=O)[C@H](Cc3ccc(-c4ccccc4)cc3)NC(=O)[C@H](Cc3ccc(OCC(=O)O)cc3)NC2=O)c1` [Compound 3817] ({CH2CO}-[Phe(4-F)]Y(Carboxymethyl)D[Phe(3-Me)]Y(Carboxymethyl)[Bip]Y(Carboxymethyl)[Orn][dL]H[Cha][Val(3-OH)]SC[Dab][AEEA][AEEA]-{NH(CH2)12COOH}; thioether N-14), the half-inhibitory concentration (IC50) stood at 57.6 nM. As for `Cc1cccc(C[C@@H]2NC(=O)[C@H](CC(=O)O)NC(=O)[C@H](Cc3ccc(OCC(=O)O)cc3)NC(=O)[C@H](Cc3ccccc3)NC(=O)CSC[C@@H](C(=O)N[C@@H](CCN)C(=O)NCCCCCCCCCCC(=O)O)NC(=O)[C@H](CO)NC(=O)[C@H](Cc3cnc[nH]3)NC(=O)[C@H](CC3CCCCC3)NC(=O)[C@H](CCN)NC(=O)[C@@H](CC(C)C)NC(=O)[C@H](CCCN)NC(=O)[C@H](Cc3ccc(OCC(=O)O)cc3)NC(=O)[C@H](Cc3ccc(-c4ccccc4)cc3)NC(=O)[C@H](Cc3ccc(C(=O)O)cc3)NC2=O)c1` [Compound 3706] ({CH2CO}-FY(Carboxymethyl)D[Phe(3-Me)][Phe(4-COOH)][Bip]Y(Carboxymethyl)[Orn][dL][Dab][Cha]HSC[Dab][Aun]-OH; thioether N-14), the 50% inhibitory concentration (IC50) is 70.3 nM.

Regarding `Cc1cccc(C[C@@H]2NC(=O)[C@H](CC(=O)O)NC(=O)[C@H](Cc3ccc(OCC(=O)O)cc3)NC(=O)[C@H](CCCNC(=N)N)NC(=O)CSC[C@@H](C(=O)N[C@@H](CCN)C(=O)NCCCCCCCCCCC(=O)O)NC(=O)[C@H](C(C)O)NC(=O)[C@H](C(C)C)NC(=O)[C@H](CC3CCCCC3)NC(=O)[C@H](CCN)NC(=O)[C@@H](CC(C)C)NC(=O)[C@H](CCCN)NC(=O)[C@H](CCCN)NC(=O)[C@H](Cc3ccc(-c4ccccc4)cc3)NC(=O)[C@H](C(C)C)NC2=O)c1` (stereo partly drawn) [Compound 3303] ({CH2CO}-RY(Carboxymethyl)D[Phe(3-Me)]V[Bip][Orn][Orn][dL][Dab][Cha]V[Thr(3ξ)]C[Dab][Aun]-OH; thioether N-14), the IC50 turned out to be 15.1 nM. For the compound `COC[C@@H]1NC(=O)CSC[C@@H](C(=O)N[C@@H](CCN)C(=O)NCCOCCOCC(=O)NCCCCCCCCCCC(=O)O)NC(=O)[C@H](CO)NC(=O)[C@H](C(C)(C)O)NC(=O)[C@H](CC2CCCCC2)NC(=O)[C@H](CCN)NC(=O)[C@@H](CC(C)C)NC(=O)[C@H](CCCN)NC(=O)[C@H](Cc2ccc(OCC(=O)O)cc2)NC(=O)[C@H](Cc2ccc(-c3ccccc3)cc2)NC(=O)[C@H](Cc2ccc(OCC(=O)O)cc2)NC(=O)[C@H](Cc2cccc(C)c2)NC(=O)[C@H](CC(=O)O)NC(=O)[C@H](Cc2ccc(C(=O)O)cc2)NC1=O` [Compound 2241] ({CH2CO}-S(Me)[Phe(4-COOH)]D[Phe(3-Me)]Y(Carboxymethyl)[Bip]Y(Carboxymethyl)[Orn][dL][Dab][Cha][Val(3-OH)]SC[Dab][AEEA][Aun]-OH; thioether N-14), the concentration for half-maximal inhibition (IC50) amounted to 3.7 nM.

On to `CC(C)C[C@H]1NC(=O)[C@H](CCCN)NC(=O)[C@H](C(C)C)NC(=O)[C@H](Cc2ccc(-c3ccccc3)cc2)NC(=O)[C@H](C(C)C)NC(=O)[C@H](Cc2c[nH]c3ccccc23)NC(=O)[C@H](CC(=O)O)NC(=O)[C@H](Cc2ccc(OCC(=O)O)cc2)NC(=O)[C@H](CN)NC(=O)CSC[C@@H](C(=O)N[C@@H](CCN)C(=O)NCCOCCOCC(=O)N[C@@H](CCC(=O)NCCCCCCCCCCC(=O)O)C(=O)O)NC(=O)[C@H](CCCN)NC(=O)[C@H](C(C)O)NC(=O)[C@H](CC2CCCCC2)NC(=O)[C@H](CCN)NC1=O` (stereo partly drawn) [Compound 3680] ({CH2CO}-[Dap]Y(Carboxymethyl)DWV[Bip]V[Orn][dL][Dab][Cha][Thr(3ξ)][Orn]C[Dab][AEEA][γGlu][Aun]-OH; thioether N-14), for which the IC50 stood at 15.8 nM. `CC(C)C[C@@H]1NC(=O)[C@H](CCN)NC(=O)[C@@H](CC(C)C)NC(=O)[C@H](CCCN)NC(=O)[C@H](C(C)C)NC(=O)[C@H](Cc2ccc(-c3ccccc3)cc2)NC(=O)[C@H](CC(C)C)NC(=O)[C@H](Cc2c[nH]c3ccccc23)NC(=O)[C@H](CC(=O)O)NC(=O)[C@H](Cc2ccc(OCC(=O)O)cc2)NC(=O)[C@H](Cc2ccc(OCC(=O)O)cc2)NC(=O)CSC[C@@H](C(=O)N[C@H](CCN)C(=O)NCCOCCOCC(=O)NCCCCCCCCCCC(=O)O)NC(=O)[C@H](CO)NC(=O)[C@H](C(C)C)CC1=O` [Compound 3071] ({CH2CO}-Y(Carboxymethyl)Y(Carboxymethyl)DWL[Bip]V[Orn][dL][Dab][X2]SC[dDab][AEEA][Aun]-OH; thioether N-13): the half-inhibitory concentration (IC50) is 17.2 nM. Regarding `CC(C)C[C@H]1NC(=O)[C@H](CCN)NC(=O)[C@H](C(C)C)NC(=O)[C@H](Cc2ccc(-c3ccccc3)cc2)NC(=O)[C@H](C(C)C)NC(=O)[C@H](Cc2c[nH]c3ccccc23)NC(=O)[C@H](CC(=O)O)NC(=O)[C@H](Cc2ccc(OCC(=O)O)cc2)NC(=O)[C@H](CCCCNC(=N)N)NC(=O)CSC[C@@H](C(=O)NCCOCCOCC(=O)N[C@@H](CCCN)C(=O)NCCCCCCCCCCC(=O)O)NC(=O)[C@H](C(C)O)NC(=O)[C@H](C(C)C)NC(=O)[C@H](CC2CCCCC2)NC(=O)[C@H](CCN)NC1=O` (stereo partly drawn) [Compound 3212] ({CH2CO}-[hArg]Y(Carboxymethyl)DWV[Bip]V[Dab][dL][Dab][Cha]V[Thr(3ξ)]C[AEEA][Orn][Aun]-OH; thioether N-14), the IC50 stood at 13.7 nM. Then `CC[C@@H]1NC(=O)CSC[C@@H](C(=O)N[C@@H](CCN)C(=O)NCCCCCCCCCCC(=O)O)NC(=O)[C@H](CO)NC(=O)[C@H](C(C)(C)O)NC(=O)[C@H](CC2CCCCC2)NC(=O)[C@H](CCN)NC(=O)[C@@H](CC(C)C)NC(=O)[C@H](CCCN)NC(=O)[C@H](Cc2ccc(OCC(=O)O)cc2)NC(=O)[C@H](Cc2ccc(-c3ccccc3)cc2)NC(=O)[C@H](Cc2ccc(OCC(=O)O)cc2)NC(=O)[C@H](Cc2cccc(C)c2)NC(=O)[C@H](CC(=O)O)NC(=O)[C@H](Cc2ccc(OCC(=O)O)cc2)NC1=O` [Compound 2214] ({CH2CO}-[Abu]Y(Carboxymethyl)D[Phe(3-Me)]Y(Carboxymethyl)[Bip]Y(Carboxymethyl)[Orn][dL][Dab][Cha][Val(3-OH)]SC[Dab][Aun]-OH; thioether N-14), with 8 nM.

As for `CCC[C@@H]1NC(=O)CSC[C@@H](C(=O)N[C@@H](CCN)C(=O)NCCOCCOCC(=O)NCCCCCCCCCCC(=O)O)NC(=O)[C@H](Cc2cnc[nH]2)NC(=O)[C@H](C(C)C)NC(=O)[C@H](CC2CCCCC2)NC(=O)[C@H](CCN)NC(=O)[C@@H](CC(C)C)NC(=O)[C@H](CCCN)NC(=O)[C@H](Cc2ccc(OCC(=O)O)cc2)NC(=O)[C@H](Cc2ccc(-c3ccccc3)cc2)NC(=O)[C@H](Cc2ccc(OCC(=O)O)cc2)NC(=O)[C@H](Cc2cccc(C)c2)NC(=O)[C@H](CC(=O)O)NC(=O)[C@H](Cc2ccc(OCC(=O)O)cc2)NC1=O` [Compound 3803] ({CH2CO}-[Nva]Y(Carboxymethyl)D[Phe(3-Me)]Y(Carboxymethyl)[Bip]Y(Carboxymethyl)[Orn][dL][Dab][Cha]VHC[Dab][AEEA][Aun]-OH; thioether N-14), the IC50 was 2.7 nM.

`CC[C@H](C)[C@@H]1NC(=O)[C@H](Cc2ccc(-c3ccccc3)cc2)NC(=O)[C@H](C(C)C)NC(=O)[C@H](Cc2c[nH]c3ccccc23)NC(=O)[C@H](CC(=O)O)NC(=O)[C@H](Cc2ccc(OCC(=O)O)cc2)NC(=O)[C@H](Cc2ccncc2)NC(=O)CSC[C@@H](C(=O)N[C@@H](CCCN)C(=O)NCCOCCOCC(=O)NCc2ccc(CC(=O)NCCCCCCCCCCC(=O)O)cc2)NC(=O)[C@H](CN)NC(=O)[C@H](C(C)C)NC(=O)[C@H](CC(C)C)NC(=O)[C@H](CCN)NC(=O)[C@@H](CC(C)C)NC(=O)[C@H](CCCN)NC1=O` [Compound 2014] ({CH2CO}-[4Pal]Y(Carboxymethyl)DWV[Bip]I[Orn][dL][Dab]LV[Dap]C[Orn][AEEA][X6][Aun]-OH; thioether N-14): the IC50 turned out to be 33 nM. Then `Cc1cccc(C[C@@H]2NC(=O)[C@H](CC(=O)O)NC(=O)[C@H](Cc3ccc(OCC(=O)O)cc3)NC(=O)[C@H](Cc3ccncc3)NC(=O)CSC[C@@H](C(=O)N[C@@H](CCN)C(=O)NCCCCCCCCCCCCCCC(=O)O)NC(=O)[C@H](CO)NC(=O)[C@H](C(C)(C)O)NC(=O)[C@H](CC3CCCCC3)NC(=O)[C@H](CCN)NC(=O)[C@@H](CC(C)C)NC(=O)[C@H](CCCN)NC(=O)[C@H](Cc3ccc(OCC(=O)O)cc3)NC(=O)[C@H](Cc3ccc(-c4ccccc4)cc3)NC(=O)[C@H](Cc3ccc(OCC(=O)O)cc3)NC2=O)c1` [Compound 2227] ({CH2CO}-[4Pal]Y(Carboxymethyl)D[Phe(3-Me)]Y(Carboxymethyl)[Bip]Y(Carboxymethyl)[Orn][dL][Dab][Cha][Val(3-OH)]SC[Dab]-{NH(CH2)14COOH}; thioether N-14), with 204 nM. The result for `Cc1cccc(C[C@@H]2NC(=O)[C@H](CC(=O)O)NC(=O)[C@H](Cc3ccc(OCC(=O)O)cc3)NC(=O)[C@H](CN)NC(=O)CNC[C@@H](C(=O)N[C@@H](CCN)C(=O)NCCCCCCCCCCC(=O)O)NC(=O)[C@H]([C@@H](C)O)NC(=O)[C@H](C(C)C)NC(=O)[C@H](CC3CCCCC3)NC(=O)[C@H](CCN)NC(=O)[C@@H](CC(C)C)NC(=O)[C@H](CCCN)NC(=O)[C@H](CCCNC(N)=O)NC(=O)[C@H](Cc3ccc(-c4ccccc4)cc3)NC(=O)[C@H](C(C)C)NC2=O)c1` [Compound 2160] reads 42.6 nM.

Source of the values: patent publication US20260022142A1, “MACROCYCLIC IMMUNOMODULATORS” (Bristol-Myers Squibb Company, priority 2022, published 2026).
